Experimental data reported in patent publication US8178535B2, “Substituted sulfonamide compounds having bradykinin 1 receptor activity and use thereof as medicaments” (Gruenenthal GmbH, priority 2008, dated 2012).

How the values were obtained:
[1] = target: T1, human B1R receptor (hB1R) (Homo sapiens, UniProt P46663); test: FLIPR Ca2+ assay (Fluo-4) on CHO K1 cells stably transfected with the human B1R gene; format: cell-based; conditions: CHO-K1; test substance 10 μM; agonist Lys-Des-Arg9-bradykinin 0.5 nM; % inhibition compared to the maximum achievable inhibition
T1 construct: host or cells: CHO K1 cells
T1 sequence (P46663 1-353): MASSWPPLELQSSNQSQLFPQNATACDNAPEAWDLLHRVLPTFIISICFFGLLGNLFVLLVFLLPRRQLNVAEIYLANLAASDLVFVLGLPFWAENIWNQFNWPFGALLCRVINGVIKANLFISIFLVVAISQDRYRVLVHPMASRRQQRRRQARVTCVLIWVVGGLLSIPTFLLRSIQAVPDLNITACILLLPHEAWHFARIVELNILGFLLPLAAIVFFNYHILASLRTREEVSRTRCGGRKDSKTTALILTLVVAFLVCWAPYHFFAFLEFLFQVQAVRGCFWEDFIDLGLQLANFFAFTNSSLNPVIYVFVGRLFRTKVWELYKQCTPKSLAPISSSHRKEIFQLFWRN
Method: (§1) The agonistic or antagonistic action of compounds can be quantified on the bradykinin 1 receptor (B1R) of humans and rats with ectopically expressing cell lines (CHO K1 cells) and with the aid of a Ca^2+-sensitive dye (Fluo-4) in the fluorescent imaging plate reader (FLIPR). The figure in percent activation refers to the Ca^2+ signal after addition of Lys-Des-Arg^9-bradykinin (0.5 nM) and Des-Arg^9-bradykinin (100 nM). Antagonists result in a suppression of the Ca^2+ inflow after the addition of the agonist. Percent inhibition values are given in comparison to the maximum achievable inhibition. The compounds according to the invention act, for example, on the B1R which is implicated in various disease states. This means that the compounds of the invention are useful as pharmaceutically active substances in medicaments for the treatment and/or inhibition of such disease states.
(§2) The agonistic or antagonistic action of substances can be determined on the bradykinin 1 receptor (B1R) of humans and rats by means of the following assay. According to this assay the Ca^2+ inflow through the channel is quantified by means of a Ca^2+-sensitive dye (Fluo-4 type, Molecular Probes Europe BV, Leiden, Netherlands), in a Fluorescent Imaging Plate Reader (FLIPR, Molecular Devices, Sunnyvale, USA).
(§3) Chinese hamster ovary cells (CHO K1 cells) are used, which are stably transfected with the human B1R gene (hB1R cells, Euroscreen s.a., Gosselies, Belgium), or with the B1R gene of rats (rB1R cells, Axxam, Milan, Italy). For functional investigations these cells are plated out on black 96-well plates with a clear floor (BD Biosciences, Heidelberg, Germany) in a density of 20,000/25,000 cells/well. The cells are incubated overnight with 10 vol. % FBS (foetal bovine serum, Gibco Invitrogen GmbH, Karlsruhe, Germany) at 37° C. and 5% CO2 in a culture medium (hB1R cells: Nutrient Mixture Ham's F12, Gibco Invitrogen GmbH, Karlsruhe, Germany; rB1R cells: D-MEM/F12, Gibco Invitrogen GmbH, Karlsruhe, Germany). The following day the cells are charged for 60 minutes at 37° C. with 2.13 μM Fluo-4 (Molecular Probes Europe BV, Leiden, Netherlands) in HBSS buffer (Hank's buffered saline solution, Gibco Invitrogen GmbH, Karlsruhe, Germany) together with […] (Sigma-Aldrich, Taufkirchen, Germany) and 10 mM HEPES (Sigma-Aldrich, Taufkirchen, Germany).
(§4) The plates are then washed twice with HBSS buffer and HBSS buffer is added which additionally contains 0.1% BSA (bovine serum albumin; Sigma-Aldrich, Taufkirchen, Germany), 5.6 mM glucose and 0.05% gelatin (Merck KGaA, Darmstadt, Germany). After further incubation for 20 minutes at room temperature the plates are used for the Ca^2+ measurement in the FLIPR. The Ca^2+-dependent fluorescence is measured both before and after the addition of substances (λex=488 nm, λem=540 nm). The quantification is carried out by measuring the highest fluorescence intensity (FC, fluorescence counts) over time.
(§5) The FLIPR protocol consists of two substance additions. First, test substances (10 μM) are pipetted onto the cells and the Ca^2+ inflow is compared with the control (hB1R: Lys-Des-Arg9-bradykinin 0.5 nM; rB1R: Des-Arg9-bradykinin 100 nM). This gives the result in percent activation referred to the Ca^2+ signal after addition of Lys-Des-Arg9-bradykinin (0.5 nM), bzw. Des-Arg9-bradykinin (100 nM). After 10 minutes' incubation 0.5 nM Lys-Des-Arg9-bradykinin (hB1R) and 100 nM Des-Arg^9-bradykinin (rB1R) are applied and the inflow of Ca^2+ is likewise determined. Antagonists lead to a suppression of the Ca^2+ inflow. The percent inhibition compared to the maximum achievable inhibition is calculated. The compounds show a good activity on both human and rat receptors.
(§6) The agonistic and antagonistic action of the compounds according to the invention on the bradykinin 1 receptor (B1R) of humans and rats were determined as described above. Antagonists lead to a suppression of the Ca^2+ inflow. […]

[2] = target: T2, B1R receptor of rats (rB1R) (Rattus norvegicus, UniProt P97583); test: FLIPR Ca2+ assay (Fluo-4) on CHO K1 cells stably transfected with the B1R gene of rats; format: cell-based; conditions: CHO-K1; test substance 10 μM; agonist Des-Arg9-bradykinin 100 nM; % inhibition compared to the maximum achievable inhibition
T2 construct: host or cells: CHO K1 cells
T2 sequence (P97583 1-337): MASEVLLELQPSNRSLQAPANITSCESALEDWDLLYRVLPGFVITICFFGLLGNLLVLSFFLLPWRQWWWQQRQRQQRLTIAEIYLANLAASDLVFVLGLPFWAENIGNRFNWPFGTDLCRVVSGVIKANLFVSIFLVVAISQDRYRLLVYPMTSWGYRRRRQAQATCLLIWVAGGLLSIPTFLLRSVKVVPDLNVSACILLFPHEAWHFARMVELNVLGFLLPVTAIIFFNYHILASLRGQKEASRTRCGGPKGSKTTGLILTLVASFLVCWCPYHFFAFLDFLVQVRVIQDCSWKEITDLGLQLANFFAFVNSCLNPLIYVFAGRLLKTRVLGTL
Method: as §1, §2, §3, §4, §5, §6

CCCC1c2cccn2CCN1C(=O)COCC1CCCCN1S(=O)(=O)c1c(C)cc(OC)cc1C (centres unmarked) [(71), 2-((1-(4-methoxy-2,6-dimethylphenylsulfonyl)piperidin-2-yl)methoxy)-1-(1-propyl-3,4-dihydropyrrolo[1,2-a]pyrazin-2(1H)-yl)ethanone]
inhibition at 10 µM [1]: 103% | inhibition at 10 µM [2]: 102%

CCC1c2cccn2CCN1C(=O)COC[C@@H]1CCCCN1S(=O)(=O)c1c(C)cc(OC)cc1C (stereo partly drawn) [(86), 1-(1-ethyl-3,4-dihydropyrrolo[1,2-a]pyrazin-2(1H)-yl)-2-(((S)-1-(4-methoxy-2,6-dimethylphenylsulfonyl)piperidin-2-yl)methoxy)ethanone]
inhibition at 10 µM [1]: 99% | inhibition at 10 µM [2]: 99%

O=C(CC1CCCCN1S(=O)(=O)c1cccc(C(F)(F)F)c1)N1CCn2c(CCc3ccncc3)ccc2C1 (centres unmarked) [(107), 1-(6-(2-(Pyridin-4-yl)ethyl)-3,4-dihydropyrrolo[1,2-a]pyrazin-2(1H)-yl)-2-(1-(3-(trifluoromethyl)phenylsulfonyl)piperidin-2-yl)ethanone]
inhibition at 10 µM [1]: 26% | inhibition at 10 µM [2]: 75%

Cc1cc(C)c(S(=O)(=O)N2CCCCC2COCC(=O)N2CCn3c(CN(C)C)ccc3C2c2cccs2)c(C)c1 (centres unmarked) [(53), 1-(6-((dimethylamino)methyl)-1-(thiophen-2-yl)-3,4-dihydropyrrolo[1,2-a]pyrazin-2(1H)-yl)-2-((1-(mesitylsulfonyl)piperidin-2-yl)methoxy)ethanone]
inhibition at 10 µM [1]: 92% | inhibition at 10 µM [2]: 102%

Cc1cc(C)c(S(=O)(=O)N2CCCCC2COCC(=O)N2CCn3cccc3C2CCc2ccccc2)c(C)c1 (centres unmarked) [(45), 2-((1-(mesitylsulfonyl)piperidin-2-yl)methoxy)-1-(1-phenethyl-3,4-dihydro-pyrrolo[1,2-a]pyrazin-2(1H)-yl)ethanone]
inhibition at 10 µM [1]: 45% | inhibition at 10 µM [2]: 98%

CN1CCN(CCCc2ccc3n2CCN(C(=O)COCC2CCc4ccccc4N2S(=O)(=O)c2ccc(Cl)c(Cl)c2)C3)CC1 (centres unmarked) [(16), 2-((1-(3,4-dichlorophenylsulfonyl)-1,2,3,4-tetrahydroquinolin-2-yl)methoxy)-1-(6-(3-(4-methylpiperazin-1-yl)propyl)-3,4-dihydropyrrolo[1,2-a]pyrazin-2(1H)-yl)ethanone]
inhibition at 10 µM [1]: 48% | inhibition at 10 µM [2]: 92%

CCC1c2cccn2CCN1C(=O)CCC1CCCCN1S(=O)(=O)c1c(C)cc(OC)cc1C (centres unmarked) [(85), 1-(1-ethyl-3,4-dihydropyrrolo[1,2-a]pyrazin-2(1H)-yl)-3-(1-(4-methoxy-2,6-dimethylphenylsulfonyl)piperidin-2-yl)propan-1-one]
inhibition at 10 µM [1]: 95% | inhibition at 10 µM [2]: 98%

COc1cc(C)c(S(=O)(=O)N2CCCCC2COCC(=O)N2CCn3c(CN(C)C)ccc3C2Cc2ccccc2)c(C)c1 (centres unmarked) [(65), 1-(1-benzyl-6-((dimethylamino)methyl)-3,4-dihydropyrrolo[1,2-a]pyrazin-2(1H)-yl)-2-((1-(4-methoxy-2,6-dimethylphenylsulfonyl)piperidin-2-yl)methoxy)ethanone]
inhibition at 10 µM [1]: 102% | inhibition at 10 µM [2]: 100%

COc1cc(C)c(S(=O)(=O)N2CCCCC2CCCC(=O)N2CCn3cc(CCc4ccncc4)nc3C2)c(C)c1 (centres unmarked) [(118), 4-(1-(4-Methoxy-2,6-dimethylphenylsulfonyl)piperidin-2-yl)-1-(2-(2-(pyridin-4-yl)ethyl)-5,6-dihydroimidazo[1,2-a]pyrazin-7(8H)-yl)butan-1-one]
inhibition at 10 µM [1]: 98% | inhibition at 10 µM [2]: 102%

COc1cc(C)c(S(=O)(=O)N2CCCCC2CCCC(=O)N2CCn3cc(-c4ccncc4)nc3C2)c(C)c1 (centres unmarked) [(100), 4-(1-(4-Methoxy-2,6-dimethylphenylsulfonyl)piperidin-2-yl)-1-(2-(pyridin-4-yl)-5,6-dihydroimidazo[1,2-a]pyrazin-7(8H)-yl)butan-1-one]
inhibition at 10 µM [1]: 85% | inhibition at 10 µM [2]: 101%
